Values after ≈ are worked out from the molar mass of the structure shown. Counter-ions that a name gives are not always drawn.
Tests used:
[1] = target: human DGAT2 (hDGAT2) (Homo sapiens (Human), UniProt Q96PD7); assay: In vitro DGAT2 assay, determination of IC50 values for DGAT2 inhibitors; assay type: biochemical; conditions: inhibition of DGAT2, hDGAT2 membrane fractions; geometric mean
Experimental: Recombinant baculovirus for the FLAG-tagged hDGAT2 was generated in SF9 insect cells using Bac-to-Bac baculovirus expression system (Invitrogen) according to the manufacturer's protocol. For the expression of hDGAT2, SF9 cells (20 L) grown in Sf900II media were infected with hDGAT2 baculovirus at a multiplicity of infection of 1 in a Wave Bioreactor System 20/50P wave bag (GE Healthcare). After 40 hours of infection, the cells were then harvested by centrifugation at 5,000×g. The cell pellets were washed by resuspending in phosphate buffered saline (PBS) and collected by centrifugation at 5,000×g. The cell paste was flash frozen in liquid N2 and stored at −80° C. until needed. All operations below were at 4° C. unless otherwise noted. The cells were resuspended in lysis buffer (50 mM Tris-HCl, pH 8.0, 250 mM sucrose) including 1 mM ethylenediaminetetraacetic acid (EDTA) and the complete protease inhibitor cocktail (Roche Diagnostics) at a ratio of 3 mL buffer per 1 g cell paste. The cells were lysed by dounce homogenizer. The cell debris was removed by centrifugation at 1,000×g for 20 min, and the supernatant was centrifuged at 100,000×g for 1 hour. The resulting pellet was rinsed three times by filling ultracentrifuge tubes to the top with ice cold PBS before decanting. The washed pellet was resuspended with gentle stirring for 1 hour in lysis buffer containing 8 mM 3-[(3-cholamidopropyl)dimethylammonio]-1-propanesulfonate (CHAPS) at a ratio of 1 mL buffer per 1 g of original cell paste and centrifuged again at 100,000×g for 1 hour. The resulting supernatant was aliquotted, flash frozen in liquid N2, and stored at −80° C. until use.
To 1 μL of compounds dissolved in 100% DMSO and spotted at the bottom of each well, 5 μL of 0.04% bovine serum albumin (BSA) (fatty acid free, Sigma Aldrich) was added and the mixture was incubated at room temperature for 15 minutes. hDGAT2 membrane fractions were diluted in 100 mM Hepes-NaOH, pH 7.4, 20 mM MgCl2 containing 200 nM methyl arachidonyl fluorophosphonate (Cayman Chemical, dried from ethyl acetate stock solution under argon gas and dissolved in DMSO as 5 mM stock). 10 μL of this enzyme working solution was added to the plates and incubation continued for 2 hours at room temperature. DGAT2 reactions were initiated by the addition of 4 μL of substrates containing 30 μM [1-^14C]decanoyl-CoA (custom-synthesized by Perkin Elmer, 50 mCi/mmol) and 125 μM 1,2-didecanoyl-sn-glycerol (Avanti Polar Lipids) dissolved in 12.5% acetone. The reaction mixtures were incubated at room temperature for 40 min and the reactions were stopped by addition of 5 μL of 1% H3PO4. After the addition of 45 μL MicroScint-E (Perkin-Elmer), plates were sealed with Top Seal-A covers (Perkin-Elmer) and phase partitioning of substrates and products was achieved using a HT-91100 microplate orbital shaker (Big Bear Automation, Santa Clara, Calif.). Plates were centrifuged at 2,000×g for 1 minute in an Allegra 6R Centrifuge (Beckman Coulter) and then were sealed again with fresh covers before reading in a 1450 Microbeta Wallac Trilux Scintillation Counter (Perkin Elmer). DGAT2 activity was measured by quantifying the generated product [^14C]tridecanoylglycerol in the upper organic phase.
Inhibitors were tested at eleven different concentrations to generate IC50 values for each compound.

[2] = Determination of pKa (capillary electrophoresis, Analiza); assay type: physicochemical; conditions: most basic pKa, mean
[3] = High throughput determination of intrinsic clearance in human hepatocytes; assay type: in vitro ADME; conditions: human, pooled cryopreserved human hepatocytes (suspension), high throughput human hepatocyte assay, 1 μM test compound; mean +/− Std Dev
Experimental: (§1) The incubation was carried out at 37° C. […] The samples were centrifuged (Eppendorf, Hauppauge, N.Y.) at 3000 rpm for 5 min at 4° C.

[4] = Intrinsic clearance in human liver microsomes; assay type: in vitro ADME; conditions: 1 μM test compound, mean +/− STD Dev; for microsomal CLint at 1 μM: human, pooled human liver microsomes, pH 7.4, human liver microsome assay; for CLint (+/−STD Dev): human liver microsome assay
Experimental: The incubations were conducted at 37° C. […] (Sorvall R C 3C Plus, Thermo Scientific, Waltham, Mass.).

[5] = target: DGAT2 in human hepatocytes (Homo sapiens (Human), UniProt Q96PD7); assay: Determination of IC50 values for DGAT2 inhibitors in human hepatocytes; assay type: cell-based; conditions: inhibition of DGAT2 in human hepatocytes; geometric mean
Experimental: For evaluation of the effects of DGAT2 inhibitors in a cell-based setting, cryopreserved human hepatocytes (Lot DOO, Celsis, Baltimore, Md.) were thawed and plated onto type I collagen-coated plates according to the manufacturer's instructions. After 18 hours overnight recovery period, the cells were overlayed with media containing 250 μg/mL Geltrex Basement Membrane Matrix (Thermo Fisher). The following day, media was aspirated and replaced with serum-free Williams Media E (Thermo Fisher) containing 400 μM sodium dodecanoate (Sigma-Aldrich, St. Louis, Mo.) and 2 mM GlutaMAX (Thermo Fisher). […] DGAT2 inhibitors were then added to the desired final concentration. After a 15 minute preincubation, 0.2 μCi [^14C(U)]-glycerol (Perkin Elmer) was added to each well followed by a 3 hour incubation. At this point the media was removed, and the cells lysed via orbital shaking in isopropyl alcohol:tetrahydrofuran (9:1) for 15 minutes prior to centrifugation at 3000 rpm for 10 minutes. Radiolabeled lipids were resolved using a solvent system by thin layer chromatography with the solvent consisting of hexanes:diethyl ether:glacial acetic acid (75:23:2, v/v/v). After separation, radiolabeled lipids were visualized using the Typhoon 9500 phosphorimaging system (GE). The half maximal inhibitory concentrations (IC50 values) were determined by nonlinear regression analysis of the % inhibition dose response curve using GraphPad Prism (GraphPad Software, Inc., La Jolla, Calif.).
Table 5 below provides the IC50 values of selected Examples for inhibition of DGAT2 in human hepatocytes in accordance with the above-described assay. Results are reported as geometric mean IC50 values, with the number of replicates (n) shown.

[6] = test system: human hepatocytes; assay: High throughput determination of intrinsic clearance in human hepatocytes; assay type: in vitro ADME; conditions: high throughput human hepatocyte assay, 1 μM test compound; mean +/− Std Dev
Experimental: as §1

[7] = Thermodynamic solubility in various biorelevant media (PBS, SGN, FaSSIF, FeSSIF); assay type: physicochemical
Experimental: The solubility of active pharmaceutical ingredients is an important characteristic in determining biological performance and ease of formulation during drug development, with high solubility being preferred (Klein, S. 2010, The AAPS Journal, 12, 397-406; Di, L., et al 2012, Drug Disc. Today, 17.486-495). A test sample of crystalline solid (˜7 mg) was combined in a vial with 1 mL of the relevant buffer solution and the mixture vortexed to combine. If the solid dissolved completely, additional solid was added with vortexing until a saturated solution was obtained. The saturated solution/solid mixture was capped and subjected to temperature cycling as follows: 1 min at 25° C.; 8 h at 40° C.; 5 h at 15° C. and 12 h at 25° C. The mixture was filtered in a centrifugal filtration device (0.22 μm PVDF filter, MilliporeSigma, Milwaukee, Wis.) at 13,000 rpm and the concentration of the test compound in the filtrate was determined by HPLC/UPLC with reference to a three point standard curve. Phosphate buffered saline (PBS, pH 6.8, 50 mM phosphate buffer, 250 mM NaCl). Simulated gastric fluid (SGN pH 1.2, USP recipe). Fasted state simulated intestinal fluid (FaSSIF, 3 mM sodium taurocholate, 0.75 mM phospholipid from soybean lecithin, 50 mM phosphate buffer, ionic strength adjusted to 250 mM with NaCl, pH 6.8) and fed state simulated intestinal fluid (FeSSIF, 15 mM sodium taurocholate, 3.75 mM phospholipid from soybean lecithin, 144 mM acetic acid, 50 mM phosphate buffer, ionic strength adjusted to 250 mM with NaCl, pH 6.8).

human DGAT2 (hDGAT2), sequence (Q96PD7 whole entry): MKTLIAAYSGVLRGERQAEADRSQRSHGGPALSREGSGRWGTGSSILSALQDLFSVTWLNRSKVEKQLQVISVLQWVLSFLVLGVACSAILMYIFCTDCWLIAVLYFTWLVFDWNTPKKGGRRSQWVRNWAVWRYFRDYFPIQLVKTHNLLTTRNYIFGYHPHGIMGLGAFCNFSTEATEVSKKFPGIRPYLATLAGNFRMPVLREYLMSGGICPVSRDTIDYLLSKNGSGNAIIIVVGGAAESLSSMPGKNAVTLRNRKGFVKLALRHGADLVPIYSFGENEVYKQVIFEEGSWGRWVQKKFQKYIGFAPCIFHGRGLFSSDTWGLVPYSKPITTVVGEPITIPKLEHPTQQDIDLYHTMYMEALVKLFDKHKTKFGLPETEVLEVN
DGAT2 in human hepatocytes, sequence (Q96PD7 whole entry): as above

| SMILES | IC50 [1] [nM] | hepatocyte CLint at 1 μM [3] [µL/min/1e6 cells] | microsomal CLint at 1 μM [4] [µL/min/mg] | CLint (+/−Std Dev) [6] | CLint (+/−STD Dev) [4] [µL/min/mg] | also measured |
| --- | --- | --- | --- | --- | --- | --- |
| CCOc1cccnc1Oc1cncc(-c2ncc(C(=O)N[C@H]3CC[C@H](C(F)(F)F)NC3)cn2)c1 (racemic) [Example 9, rac-2-{5-[(3-ethoxypyridin-2-yl)oxy]pyridin-3-yl}-N-[(3R,6S)-6-(trifluoromethyl)piperidin-3-yl]pyrimidine-5-carboxamide or rac-2-{5-[(3-ethoxypyridin-2-yl)oxy]pyridin-3-yl}-N-[(3R,6R)-6-(trifluoromethyl)piperidin-3-yl]pyrimidine-5-carboxamide] | 19 | 54 | > 290 | – | – | pKa [2]: 4 |
| CCOc1cccnc1Oc1cncc(-c2ncc(C(=O)N[C@H]3CNC[C@@H](F)C3)cn2)c1 (racemic) [Example 25, rac-2-{5-[(3-ethoxypyridin-2-yl)oxy]pyridin-3-yl}-N-[(3R,5S)-5-fluoropiperidin-3-yl]pyrimidine-5-carboxamide, trifluoroacetate salt] | 200 | 6.5 | 11 | – | – | IC50 [5]: > 130 nM; pKa [2]: 6.8 |
| CCOc1cccnc1Oc1cncc(-c2ncc(C(=O)NC3CCC(C(F)(F)F)NC3)cn2)c1 (single isomer, unassigned; ent-1) [Example 10, 2-{5-[(3-ethoxypyridin-2-yl)oxy]pyridin-3-yl}-N-[6-(trifluoromethyl)piperidin-3-yl]pyrimidine-5-carboxamide, trifluoroacetate salt, ENT-1] | 39 | 27 | 270 | – | – | Basic pKa [2]: 4.7 |
| CCOc1cc(F)cnc1Oc1cncc(-c2ncc(C(=O)N[C@@H]3CNCC[C@@H]3F)cn2)c1 [Example 1, 2-{5-[(3-Ethoxy-5-fluoropyridin-2-yl)oxy]pyridin-3-yl}-N-[(3R,4S)-4-fluoropiperidin-3-yl]pyrimidine-5-carboxamide, bis(trifluoroacetate) salt] | 5.8 | – | – | <2.7 +/− 0.72 μL/min/10^6 cells | <7 | Basic pKa [2]: 7.7 |
| CCOc1cccnc1Oc1cncc(-c2ncc(C(=O)N[C@@H]3CNCC[C@@H]3F)cn2)c1 [Example 3, 2-{5-[(3-Ethoxypyridin-2-yl)oxy]pyridin-3-yl}-N-[(3R,4S)-4-fluoropiperidin-3-yl]pyrimidine-5-carboxamide, bis(trifluoroacetate) salt] | – | – | – | <1.9 +/− 0.35 μL/min/10^6 cells | <7 | Basic pKa [2]: 8.1 |
| CCOc1cccnc1Oc1cncc(-c2ncc(C(=O)N[C@H]3CNC[C@H](F)C3)cn2)c1 [Example 7, 2-{5-[(3-ethoxypyridin-2-yl)oxy]pyridin-3-yl}-N-[(3R,5R)-5-fluoropiperidin-3-yl]pyrimidine-5-carboxamide, trifluoroacetate salt] | – | < 1.8 | < 7 | – | – | IC50 [5]: 100 nM; pKa [2]: 7.5 |
| CCOc1cccnc1Oc1cncc(-c2ncc(C(=O)N[C@H]3CCOC3)cn2)c1 [WO2018033832 Ex. 1, Form 1] | – | – | – | – | – | Solubility ([7]; FaSSIF pH 6.8): 69 µg/mL (≈ 169 µM); Solubility ([7]; PBS, pH 6.8): 43 µg/mL (≈ 106 µM); Solubility ([7]; SGN pH 1.2): 78 µg/mL (≈ 191 µM) |
| CCOc1cccnc1Oc1cncc(-c2ncc(C(=O)N[C@H]3CCOC3)cn2)c1 [WO2018033832 Ex. 1, Form 2] | – | – | – | – | – | Solubility ([7]; FaSSIF pH 6.8): 93 µg/mL (≈ 228 µM); Solubility ([7]; PBS, pH 6.8): 60 µg/mL (≈ 147 µM); Solubility ([7]; SGN pH 1.2): 1082 µg/mL (≈ 2660 µM) |
| CCOc1cccnc1Oc1cncc(-c2ncc(C(=O)NC3(C)CCS(=O)(=O)C3)cn2)c1 (stereo not drawn) [WO2018033832 Ex. 3.1] | – | – | – | 9.3 +/− 1.1 μL/min/10^6 cells | 30 | – |
| CCOc1cccnc1Oc1cncc(-c2ncc(C(=O)NC3CCS(=O)(=O)C3)cn2)c1 (stereo not drawn) [WO2018033832 Ex. 3.3] | – | – | – | 5.1 +/− 0.69 μL/min/10^6 cells | <8 | – |
| CCOc1cc(F)cnc1Oc1cncc(-c2ncc(C(=O)N[C@H]3CCOC3)cn2)c1 [WO2018033832 Ex. 8] | – | – | – | 9.3 +/− 0.52 μL/min/10^6 cells | <9.6 | – |

From patent publication US11065249B2, “Diacylglycerol acyl transferase 2 inhibitor” (Pfizer Inc., priority 2019, dated 2021)
